Values joined by “and” are separate entries in the source; they are usually repeats but may differ in a detail not shown here. Identical values can stand only once.
Tested on: IL-1β induced E-selectin expression
Assay: Inhibition of IL-1β induced E-selectin (SELE) mRNA expression in primary HUVEC, real time PCR
Type: cell-based, human
Settings: for Inhibitory activity against E-selectin expression (in words): IL-1β stimulated HUVEC, 5 ng/mL IL-1β for 90 min; for EC [μM] (effective concentration) / Max. Inhibition (%): HUVEC pre-incubated 30 min with compound, then 5 ng/mL IL-1β for 90 min; for EC [μM] (effective concentration): SELE mRNA normalized to GAPDH, at least three independent experiments; for Max. Inhibition (%): SELE mRNA by qPCR, at the effective concentration
Procedure: J. Seigner et al. (Frontiers in Pharmacology 10.3389/fphar.2019.00289) reported recently that interleukin-1β (IL-1β) induced E-selectin mRNA levels were inhibited by a comfrey extract by approximately 70% at the starting concentration of 20 μg/ml. E-selectin is a NF-κB-dependent target gene and IL-1β is a well-described pro-inflammatory mediator that exerts an important role in the regulation of immune and inflammatory responses, in particular those involving sterile insults such as trauma and blunt injuries. […] Thus, the anti-inflammatory activity of individual compounds 1, 5, 12 and 14, was tested using IL-1-stimulated HUVEC cells and analyzed by real time PCR determining the fold change in mRNA expression of E-selectin. These were compared to the inhibitory activity of the new arylnaphthalene lignan comfreyn A (15) and globoidnan B (8), malaxinic acid (9) and caffeic acid ethyl ester (16), the latter three identified first time in S. officinale as disclosed herein.
Therefore, primary HUVEC cells were isolated from umbilical cords as described by M. Hoeth et al., Guidance Molecules in Human Endothelial Cells, Plos One 7, 2012 and maintained in M199 medium (Lonza) supplemented with 20% FCS (Sigma), 2 mM L-glutamine (Sigma), penicillin (100 units/mL), streptomycin ([…]), 5 units/mL heparin, and […] ECGS (Promocell), and were used up to passage 5. HUVEC cell were pre-incubated with various concentration of purified compounds (1, 5, 8, 9, 12, 14, 15 and 16) for 30 minutes following stimulation with 5 ng/mL IL-1β (R&D Systems) for 90 min. Cells were then analyzed for the change in mRNA expression of E-Selectin (SELE). Therefore, total RNA was isolated using the PeqGold Total RNA Isolation Kit (VWR International) according to the manufacturer's instructions. 1 μg RNA was reverse transcribed using random hexamers (Fermentas) and murine leukemia virus reverse transcriptase (Thermo Scientific Fisher). Primers were designed using the software “Primer3”. Following primer sequences were used for qPCR: glyceraldehyde 3-phosphate dehydrogenase (GAPDH) forward, 5′-AGAAGGCTGGGGCTCATTT-3′ and reverse, 5′-[…]-3′; E-Selectin (SELE) forward, 5′-CCTGTGAAGCTCCCACTGA-3 and reverse 5′-[…]-3′. Real-time PCR was done with the SsoAdvanced Universal SYBR Green Supermix (BioRad) using the StepOnePlus instrument (Applied Biosystems), and relative mRNA expression normalized to GAPDH. Fold changes in mRNA expression were calculated according to the 2-ΔΔCT method.

SMILES | Inhibitory activity against E-selectin expression (in words) | EC [μM] (effective concentration) [µM] | Max. Inhibition (%) | also measured
NC(=O)NC1NC(=O)NC1=O (stereo not shown) [Compound 1, allantoin] | do not show any inhibitor activity |  |  | 
O=Cc1ccc(O)c(O)c1 [Compound 5, protocatechuic aldehyde] |  | 120 |  | 
O=C(O[C@H](Cc1ccc(O)c(O)c1)C(=O)O)C1=Cc2cc(O)c(O)cc2[C@H](c2ccc(O)c(O)c2)[C@H]1C(=O)O [Compound 8, globoidnan B] | did not show any inhibitory activity |  |  | 
CC(C)=CCc1cc(C(=O)O)ccc1O[C@@H]1O[C@H](CO)[C@@H](O)C(O)[C@H]1O (stereo partly shown) [Compound 9, malaxinic acid] |  | 108 |  | 
O=C(/C=C/c1ccc(O)c(O)c1)O[C@H](Cc1ccc(O)c(O)c1)C(=O)O [Compound 12, rosmarinic acid] | do not show any inhibitor activity |  |  | 
O=C(O[C@H](Cc1ccc(O)c(O)c1)C(=O)O)c1cc(-c2ccc(O)c(O)c2)c2cc(O)c(O)cc2c1 [Compound 14, globoidnan A] |  | 40 | 35% | 
CCOC(=O)c1cc2cc(O)c(O)cc2c2c1c(=O)oc1cc(O)c(O)cc12 [Compound 15, comfreyn A] |  | 50 | 50% and 52% | Inhibitory activity against E-selectin expression (in words) (listed as Comfreyn A): inhibition of E-selectin expression; Inhibitory activity against E-selectin expression (in words) (listed as comfreyn A): inhibit the expression of E-selecting mRNA
CCOC(=O)/C=C/c1ccc(O)c(O)c1 [Compound 16, caffeic acid ethyl ester] |  | 64 | 70% | 

Reference: patent US20210269411A1, “COMFREYNS, ARYLNAPHTHALENE LIGNANS THAT INHIBIT PRO-INFLAMMATORY GENE EXPRESSION, AND PHARMACEUTIC COMPOSITION COMPRISING THEM” (The Procter & Gamble Company, priority 2020, published 2021)
